From patent publication US9820951B2, “Pulmonary disease treatment and diagnosis based on Arhgef1” (NATIONAL JEWISH HEALTH, A NON-PROFIT ORGANIZATION, priority 2011, dated 2017) come the findings set out here.

The structures appear in SMILES notation.

Assay [1] deals with MMP9. Nature of the assay: MMP9 production by human alveolar macrophages cultured on fibronectin (gelatin zymography). It counts as cell-based. The settings on record: PTA2 1.25, 6.25 and 25 μM, dose-dependent. The source says: FIG. 14. Human alveolar macrophages produce TXB2 when cultured on fibronectin and thromboxane receptor signaling is required for MMP9 production. A, TXB2 production measured in conditioned media from human macrophages cultured on fibronectin (closed bars) or plastic (open bars) at the indicated cellular concentrations. B, TXB2 measured in conditioned media from macrophages cultured at 0.125×10^6 cells/ml on either plastic (ctl) or FN from four individuals. The data represent the means±S.E. C, gelatin zymogram of conditioned media from cells cultured as indicated and in the presence of increasing doses of the thromboxane receptor antagonist PTA2 (at 1.25, 6.25, and 25 μM, respectively). Below the zymogram is quantitation of MMP9 activity by densitometric analysis.
Tissue-culture 96-well plates (Costar high binding catalogue number 3590) were coated with 10 μg/ml of murine fibronectin (Molecular Innovations, Nori, Minn.; catalogue number MFBN) or human fibronectin (Molecular Innovations; catalogue number HFBN) in DPBS without Ca^2+ or Mg^2+ (Mediatech, Inc., Manassas, Va.) for 2 h at room temperature. […] PGE2 and TXB2 were measured in conditioned medium by ELISA according to the manufacturer's instructions (ElisaTech, Aurora, Colo.). […]
For other human studies, we quantitated MMP9 by ELISA in conditioned medium (ELISA TECH, Aurora, Colo.). […]

In assay [2] the test system is Mmp9. As to the kind of experiment: MMP9 activity in BAL of Arhgef1−/− mice after aerosol exposure. It counts as in vivo, mouse. The settings on record: inhalation of aerosol 20 min (220 μM PTXA2, 190 μM U-46619), BAL 24 hours later. The procedure:
FIG. 4. TP signaling is required for MMP9 production in vitro and in vivo. A) Macrophage Mmp9 expression after culture on fibronectin for 24 hrs in media/vehicle (−), 40 nM S1P, 10 μM LPA, 10 nM U-46619 (TP agonist) or 6 μM PTXA2 (TP antagonist). Data represent normalized mean±SE. B) Arhgef1−/− mice (n=16) were exposed to aerosolized PBS (n=16), 220 μM PTXA2 (n=6) or 190 μM U-46619 (n=10) for 20 minutes and BAL harvested 1 day later and MMP activity measured.

In the case of `CCCCC[C@@H](O)/C=C/[C@H]1C[C@H]2C[C@@H]([C@@H]1C/C=C\CCCC(=O)O)C2(C)C` (relative stereo) [PTXA2, (18-(1alpha,2beta(Z),3alpha(1E,3S*),5alpha))-7-(3-(3-Hydroxy-1-octenyl)-6,6-dimethylbicyclo(3.1.1)hept-2-yl)-5-heptenoic acid], in the assay with MMP9 [1], the “inhibition of MMP9 production” value was approximately 90%. Also, in the assay with Mmp9 [2], the “MMP9 activity in BAL” value is given as “considerably diminished MMP9 activity”.
